What was measured:
[1] = target: recombinant human cannabinoid 1 receptor (CB1) (Homo sapiens, UniProt P21554); experiment: In vitro determination of antagonism to CB1-receptor ([35S]GTPγS binding assay, CHO cell membranes); format: biochemical; conditions: compound at 1 μM against agonist WIN 55,212-2 (3 nM to 3 μM); effect of Rimonabant (1 μM) defined as 100%
Method in brief: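 Membranes from CHO cells stably expressing human CB1 (15 μg protein/well) incubated 60 min at 30° C., pH 7.4, with 5 μM GDP, saponin and 0.5 nM [35S]GTPγS, compound at 1 μM final, with or without WIN 55,212-2 (3 nM–3 μM). Bound radioactivity via filtration; basal subtracted, antagonism scaled to WIN 55,212-2 ± Rimonabant (1 μM) window as 100%.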

CB1 receptor [2] = target: T1, CB1 receptor; experiment: In-vitro determination of affinity to CB1/CB2-receptors (radioligand [3H]-CP55940 binding); conditions: binding data per pharmacological methods part I, table does not say whether human transfected receptor or rat cerebellum
T1 construct: IC50 [nM]; radioligand [3H]-CP55940
Method in brief: (§1)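 Transfected human CB1/CB2 receptors were tested with [3H]-CP55940. In the modified Govaerts method, rat cerebellum membranes (100 µg protein) were incubated with 1 nM [3H]-CP55940 and compound for 1 h at 30 °C in Tris-HCl/MgCl2/EDTA/0.5% BSA, pH 7.4, with 10 µM HU-210 defining non-specific binding. Filter-bound radioactivity was counted in triplicate and analysed by non-linear regression.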

CB1 receptor [3] = target: T2, CB1 receptor (UniProt P20272); experiment: as above
T2 construct: other: compound at 10^−7 M; radioligand [3H]-CP55940; other: compound at 10^−8 M
Method in brief: as §1

recombinant human cannabinoid 1 receptor (CB1), sequence (P21554 whole entry): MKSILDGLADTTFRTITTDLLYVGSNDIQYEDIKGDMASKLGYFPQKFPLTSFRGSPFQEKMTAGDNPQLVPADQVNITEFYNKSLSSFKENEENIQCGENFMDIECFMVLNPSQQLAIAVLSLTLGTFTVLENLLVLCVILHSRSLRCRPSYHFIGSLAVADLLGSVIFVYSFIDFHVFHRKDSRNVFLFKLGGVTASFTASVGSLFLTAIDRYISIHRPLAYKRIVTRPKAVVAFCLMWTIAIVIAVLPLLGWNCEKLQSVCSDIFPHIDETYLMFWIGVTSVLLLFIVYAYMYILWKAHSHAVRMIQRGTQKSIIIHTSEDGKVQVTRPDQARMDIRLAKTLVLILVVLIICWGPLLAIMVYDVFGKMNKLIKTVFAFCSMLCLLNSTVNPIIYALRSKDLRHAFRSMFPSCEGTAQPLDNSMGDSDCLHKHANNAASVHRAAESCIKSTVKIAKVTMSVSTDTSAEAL

SMILES	Antagonism [%] [1]	IC50 (CB1 receptor [2])	Inhibition [%], 10^−7 M (CB1 receptor [3]; compound at 10^−7 M)	Inhibition [%], 10^−8 M (CB1 receptor [3]; compound at 10^−8 M)	IC50 (CB1 receptor [2]; hydrochloride)
O=C(NN1CC2CCCC2C1)C1=NN(c2ccc(Cl)cc2Cl)C(c2ccc(Br)cc2)C1 (stereo not drawn) [Example 63, 5-(4-Bromo-phenyl)-1-(2,4-dichloro-phenyl)-4,5-dihydro-1H-pyrazole-3-carboxylic acid (hexahydro-cyclopenta[c]pyrrol-2-yl)-amide]	119%	25.1 nM			
O=C(NN1CCN(C2CCCC2)CC1)C1=NN(c2ccc(Cl)cc2Cl)C(c2ccc(Br)cc2)C1 (stereo not drawn) [Example 64, 5-(4-Bromo-phenyl)-1-(2,4-dichloro-phenyl)-4,5-dihydro-1H-pyrazole-3-carboxylic acid (4-cyclopentyl-piperazin-1-yl)-amide]	63%	562 nM			
Cl.O=C(NN1CCc2ccccc21)C1=NN(c2ccc(Cl)cc2Cl)C(c2ccc(Br)cc2)C1 (stereo not drawn) [Example 66, 5-(4-Bromo-phenyl)-1-(2,4-dichloro-phenyl)-4,5-dihydro-1H-pyrazole-3-carboxylic acid (2,3-dihydro-indol-1-yl)-amide hydrochloride]	86%	100 nM			
O=C(NN1CCCCCC1)C1=NN(c2ccc(Cl)cc2Cl)C(c2ccc(Br)cc2)C1 (stereo not drawn) [Example 68, 5-(4-Bromo-phenyl)-1-(2,4-dichloro-phenyl)-4,5-dihydro-1H-pyrazole-3-carboxylic acid azepan-1-ylamide]	98%	39.8 nM			
O=C(C1=NN(c2ccc(Cl)cc2Cl)C(c2ccc(Cl)cc2)C1)N1CC=CCC1 (stereo not drawn) [Example 74, [5-(4-Chloro-phenyl)-1-(2,4-dichloro-phenyl)-4,5-dihydro-1H-pyrazol-3-yl]-(3,6-dihydro-2H-pyridin-1-yl)-methanone]	44%	794 nM			
O=C(C1=NN(c2ccc(Cl)cc2Cl)C(c2ccc(Cl)cc2)C1)N1C=NCCC1 (stereo not drawn) [Example 75, [5-(4-Chloro-phenyl)-1-(2,4-dichloro-phenyl)-4,5-dihydro-1H-pyrazol-3-yl]-(5,6-dihydro-4H-pyrimidin-1-yl)-methanone]	42%	> 1000 nM			
O=C(C1=NN(c2ccc(Cl)cc2Cl)C(c2ccc(Cl)cc2)C1)N1CCCc2ccccc21 (stereo not drawn) [Example 81, [5-(4-Chloro-phenyl)-1-(2,4-dichloro-phenyl)-4,5-dihydro-1H-pyrazol-3-yl]-(3,4-dihydro-2H-quinolin-1-yl)-methanone]	20%	708 nM			
CC1CCCC(C)N1NC(=O)C1=NN(c2ccc(Cl)cc2Cl)C(c2ccc(Cl)cc2)C1.Cl (stereo not drawn) [Example 192, 5-(4-Chloro-phenyl)-1-(2,4-dichloro-phenyl)-4,5-dihydro-1H-pyrazole-3-carboxylic acid (2,6-dimethyl-piperidin-1-yl)-amide hydrochloride]	63%				501 nM

Further lines, results first:

Antagonism [%] [1]	IC50 (CB1 receptor [2])	Inhibition [%], 10^−7 M (CB1 receptor [3]; compound at 10^−7 M)	Inhibition [%], 10^−8 M (CB1 receptor [3]; compound at 10^−8 M)	IC50 (CB1 receptor [2]; hydrochloride)	SMILES
31%	117 nM	50.7%	32.9%		CC1Cc2ccccc2N1NC(=O)C1=NN(c2ccc(Cl)cc2Cl)C(c2ccc(Cl)cc2)C1 (stereo not drawn) [Example 27, 5-(4-Chloro-phenyl)-1-(2,4-dichloro-phenyl)-4,5-dihydro-1H-pyrazole-3-carboxylic acid (2-methyl-2,3-dihydro-indol-1-yl)-amide]
81%	280 nM				O=C(NC1CCCC1)C1=NN(c2ccc(Cl)cc2Cl)C(c2ccc(Cl)cc2)C1 (stereo not drawn) [Example 37, 5-(4-Chloro-phenyl)-1-(2,4-dichloro-phenyl)-4,5-dihydro-1H-pyrazole-3-carboxylic acid cyclopentylamide]
81%	39.8 nM				CC1CCCC(NC(=O)C2=NN(c3ccc(Cl)cc3Cl)C(c3ccc(Cl)cc3)C2)C1 (stereo not drawn) [Example 57, 5-(4-Chloro-phenyl)-1-(2,4-dichloro-phenyl)-4,5-dihydro-1H-pyrazole-3-carboxylic acid (3-methyl-cyclohexyl)-amide]
57%	398 nM				O=C(NC1CCCc2ccccc21)C1=NN(c2ccc(Cl)cc2Cl)C(c2ccc(Cl)cc2)C1 (stereo not drawn) [Example 76, 5-(4-Chloro-phenyl)-1-(2,4-dichloro-phenyl)-4,5-dihydro-1H-pyrazole-3-carboxylic acid (1,2,3,4-tetrahydro-naphthalen-1-yl)-amide]
56%	501 nM				C[C@@H]1CN(C(=O)C2=NN(c3ccc(Cl)cc3Cl)C(c3ccc(Cl)cc3)C2)C[C@H](C)O1 (stereo partly drawn) [Example 80, [5-(4-Chloro-phenyl)-1-(2,4-dichloro-phenyl)-4,5-dihydro-1H-pyrazol-3-yl]-(2,6-dimethyl-morpholin-4-yl)-methanone]
112%	20 nM				COc1ccc(C2CC(C(=O)NN3CCCCC3)=NN2c2ccc(Cl)cc2Cl)cc1 (stereo not drawn) [Example 106A, 1-(2,4-Dichloro-phenyl)-5-(4-methoxy-phenyl)-4,5-dihydro-1H-pyrazole-3-carboxylic acid piperidin-1-ylamide]

Source: patent US8207156B2, “Substituted pyrazoline compounds, their preparation and use as medicaments” (Laboratorios Del Dr. Esteve, S.A., priority 2005, dated 2012)
